Entries after “also recorded” stand apart in the source; their conditions may differ. Read-outs that look alike come from different tables or passages of the source.
Key:
GST-XD4 [1] = target: T1, GST-XD4 (Rous sarcoma virus subgroup A, UniProt P00524, DEL77-225); assay: Autophosphorylation with radiolabeled nucleotide (autoradiogram); type: biochemical; set-up: mutant of the v-Src catalytic domain, (the XD4 fragment) were made as glutathione S-transferase (GST) fusion proteins; made in house; host or cells: E. coli (DH5a), pGEX-KT; conditions: GST-XD4, FIG. 5C lane 3
Description: (§1) It is even more significant that the new substrate, [γ-^32P] […] FIG. 5C is an autoradiogram showing [γ-^32P]

GST-XD4(V323A, I338A) [2] = conditions: 100 μM analog, 10 μM [γ-32P] ATP
[3] = tested on: protein tyrosine kinase in murine lymphocyte cell lysate (CF); assay: Screening of ATP analogs as kinase substrates in murine lymphocyte lysate (anti-phosphotyrosine immunoblot); type: biochemical; conditions: 100 uM nucleotide triphosphate, 37° C., 5 min
Description: Screening of Nucleotide Analogs: To identify compounds that would not be accepted as substrates by any existing cellular kinase (53), a panel of synthetic A*TP analogs were screened in a murine lymphocyte lysate (CF) rich in protein tyrosine kinase (13). The assays were performed using spleenocytes (8-30 week old male and female C57/B6 mice from the Princeton University Animal Facility) which were isolated and washed in RPMI-1640 medium containing 5% Bovine Calf Serum (BCS), 1% Hepes and DNAseI (1 μg/ml). Red cells were lysed at 4° C. by treatment with 17 mM tris ammonium chloride pH 7.2. The cells were hypotonically lysed on ice for 10 min. In 1 mM Hepes pH 7.4, 5 mM MgCl2, leupeptin (10 μg/ml), aprotinin (10 μg/ml) and 100 uM PMSF according to the method of Fukazawa et. al. (51). After vortexing and centrifuigation at 500 xg, the supernatant was collected. Cells were stored at 4° C. for 20 min. To attenuate the basal protein phosphorylation level, after which the buffer was adjusted to 20 mM Hepes pH 7.4, 10 mM MgCl2 and 1 mM NaF. Sodium vanadate (100 uM) was then added to inhibit the activity of phosphotyrosine phosphatases.
Each nucleotide triphosphate was added to a final concentration of 100 uM to 5×10^6 cell equivalents and incubated at 37° C. for 5 min. after which 4X Laemmli gel loading buffer was added to the cell lysate to quench the reaction. Proteins were separated by 12.5% SDS-PAGE and transferred to Protran BA85 (Schleicher-Schuell). The blot was probed with the anti-phosphotyrosine monoclonal antibody 4G10 (Upstate Biotechnology) and the bound antibody was detected via enhanced chemiluminescence (cat. 34080, Pierce) following treatment with HRP- coupled goat-anti-mouse antibody (VWR cat. 7101332) according to the manufacturer's instructions.
The cell lysate used includes the protein tyrosine kinase Src, Fyn, Lck, Lyn, Yes, Fgr, Hck, Zap, Syk, Btk, Blk, and other protein tyrosine kinase present in B and T lymphocytes, macrophages, and follicular dendritic cells (13). Molecular size standards (in kilodaltons) are indicated.

GST-XD4(V323A, I338A) [4] = target: T2, GST-XD4(V323A, I338A) (Rous sarcoma virus subgroup A, UniProt P00524, DEL77-225/I338A/V323A); type: biochemical
T2 construct: mutant of the v-Src catalytic domain, (the XD4 fragment) were made as glutathione S-transferase (GST) fusion proteins; made in house; host or cells: E. coli (DH5a), pGEX-KT
Description: (§2) Kinetic constants were determined by analysis of Lineweaver-Burk plots of the rate data (64).

[5] = tested on: wild-type cellular kinase in murine lymphocyte lysates; assay: In vitro kinase reactions with radiolabeled nucleotide in murine lymphocyte lysates; type: biochemical; conditions: 100 μM radiolabeled nucleotide, 37° C., 10 min
Description: For this it is preferably that no wild-type kinase, including ser/thr specific kinase (which carry out the bulk of cellular phosphorylation, as only 0.03% of all phosphoamino acids are tyrosine) (65), substantially accept the synthetic substrate. To establish that [γ-^32P]
These assays were performed in a manner similar to the procedure set forth in Example 2, with the exception of the use of radiolabeled [γ-^32P] […] Proteins were separate by 12.5% SDS-PAGE. The gel was soaked in 10% acetic acid, 10% isopropanol for 1 h. after which it was dried in a gel dryer and exposed to Biomax MS film (Kodak # 111-1681) for 1 h.

GST-XD4(V323A, I338A) [6] = target: T2, GST-XD4(V323A, I338A); assay: Autophosphorylation with radiolabeled nucleotide (autoradiogram); type: biochemical; conditions: FIG. 5C lane 4
Description: as §1

GST-XD4 [7] = target: T1, GST-XD4; assay: biochemical; type: biochemical; set-up: mutant of the v-Src catalytic domain, (the XD4 fragment) were made as glutathione S-transferase (GST) fusion proteins; made in house; host or cells: E. coli (DH5a), pGEX-KT
Description: as §2

GST-XD4 [8] = target: T1, GST-XD4; conditions: read-out: KM for protein substrate RR-Src at saturated nucleotide
Cdc28-as1 · MBP-Clb2 = target: T3, Cdc28-as1 · MBP-Clb2 (Saccharomyces cerevisiae, UniProt P00546, F88G); type: biochemical
T3 construct: made in house; host or cells: Sf9 insect cells, baculovirus, co-infected with Cak1-HA3 (Cdc28-as1-His6); bacteria (MBP-Clb2)
T3 sequence (P00546 whole entry F88G): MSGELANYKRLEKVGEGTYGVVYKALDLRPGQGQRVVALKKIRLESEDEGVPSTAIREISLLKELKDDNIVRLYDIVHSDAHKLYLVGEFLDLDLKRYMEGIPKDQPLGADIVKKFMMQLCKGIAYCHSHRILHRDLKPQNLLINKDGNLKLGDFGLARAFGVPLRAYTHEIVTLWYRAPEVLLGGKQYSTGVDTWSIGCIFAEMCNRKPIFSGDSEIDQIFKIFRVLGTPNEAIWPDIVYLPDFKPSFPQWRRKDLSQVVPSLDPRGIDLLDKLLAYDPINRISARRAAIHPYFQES
T3 sequence (P24869 whole entry, further chain): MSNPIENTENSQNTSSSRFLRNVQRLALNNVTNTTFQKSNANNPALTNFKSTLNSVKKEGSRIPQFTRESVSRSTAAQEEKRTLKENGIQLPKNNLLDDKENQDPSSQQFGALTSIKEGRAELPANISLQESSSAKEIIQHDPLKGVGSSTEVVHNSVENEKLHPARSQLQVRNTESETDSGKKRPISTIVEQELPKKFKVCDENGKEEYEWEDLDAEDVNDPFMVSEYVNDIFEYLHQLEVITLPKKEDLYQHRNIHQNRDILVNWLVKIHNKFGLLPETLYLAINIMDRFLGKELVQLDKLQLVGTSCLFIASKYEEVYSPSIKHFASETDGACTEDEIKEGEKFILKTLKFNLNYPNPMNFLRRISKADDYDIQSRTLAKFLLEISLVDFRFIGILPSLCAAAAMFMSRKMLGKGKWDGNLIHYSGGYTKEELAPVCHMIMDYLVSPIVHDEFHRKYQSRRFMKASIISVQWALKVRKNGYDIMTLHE

wild-type Fyn = wild-type Fyn (Homo sapiens, UniProt P06241); assay: Peptide phosphorylation assay, screening of inhibitors orthogonal to wild-type kinases; type: biochemical; conditions: read-out: IC50 for inhibition of wild-type Fyn
Sequence of wild-type Fyn (P06241 1-534 isoform P06241-2, species assumed): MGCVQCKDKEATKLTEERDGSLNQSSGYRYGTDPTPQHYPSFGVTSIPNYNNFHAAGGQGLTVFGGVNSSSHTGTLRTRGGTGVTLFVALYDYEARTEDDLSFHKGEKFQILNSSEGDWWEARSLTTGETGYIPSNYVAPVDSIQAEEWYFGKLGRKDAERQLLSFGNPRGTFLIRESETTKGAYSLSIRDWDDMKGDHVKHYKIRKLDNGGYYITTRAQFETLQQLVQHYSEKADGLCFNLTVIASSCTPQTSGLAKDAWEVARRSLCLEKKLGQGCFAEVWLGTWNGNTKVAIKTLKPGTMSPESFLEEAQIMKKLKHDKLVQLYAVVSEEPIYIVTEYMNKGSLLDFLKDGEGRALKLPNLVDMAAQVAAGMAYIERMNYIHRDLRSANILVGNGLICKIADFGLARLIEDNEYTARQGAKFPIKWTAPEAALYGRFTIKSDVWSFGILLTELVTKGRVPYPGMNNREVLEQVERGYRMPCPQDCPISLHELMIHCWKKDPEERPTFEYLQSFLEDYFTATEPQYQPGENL
Description: Screening of inhibitors which are orthogonal to wild-type kinases: To identify compounds that would not inhibit any existing cellular kinases, the panel of synthetic pyrazolo pyrimidine analogs (1-6) (FIG. 10) were screened against two closely related purified protein tyrosine kinases, v-Src and Fyn, in a peptide phosphorylation assay using [γ-^32P]

[9] = tested on: I338G v-Src transformed NIH3T3 fibroblasts; assay: Microscopy of cell morphology and polymerized actin; type: cell-based, murine; conditions: 100 mM 3g, 48 hours
Description: FIG. 21A show non-transformed NIH3T3 cells.
Microscopy: Non-transformed, WT v-Src transformed, and 1338G v-Src transformed NIH3T3 fibroblasts were grown in DMEM/10% BCS on tissue culture treated slides. V-Src expressing cells were treated with either 1.1% DMSO or […] 3g in 1.1% DMSO. After 48 hours cells were photographed at 400(magnification on an Nikon TMS light microscope. Immediately following light microscopy, the cells were fixed for 20 min in 3.7% formaldehyde/PBS and permeabilized for 60 sec in 0.2% Triton X-100(/PBS. Permeabilized cells were incubated with 200 ng/mL phalloidin-FITC/PBS for 20 min. Slides were rinsed with PBS and polymerized actin was visualized by fluorescence microscopy at 600( magnification on a Zeiss fluorescence microscope.

[10] = tested on: WT v-Src transformed NIH3T3 cells; assay: Inhibition of v-Src in NIH3T3 fibroblasts (phosphotyrosine blot); type: cell-based, murine; conditions: 100 mM 3g, 12 hours
Description: Tyrosine phosphorylated proteins were visualized as in FIG. 20A.
Retroviral Infection of NIH 3T3 Fibroblasts: Genes encoding WT and I338G v-Src were transfected into a packaging cell line and NIH 3T3 fibroblasts were retrovirally infected using the pBabe retroviral vector and a puromycin ([…]) selectable marker as described (Shah, K., Liu, Y., Shokat, K. M., in preparation). WT and I338G v-Src transformed cells were cultured in DMEM/10% BCS containing […] puromycin).
After 12 hours, the cells were washed with PBS and lysed (lysis buffer: 1% Triton X-100, 50 mM tris pH 7.4, 2 mM EDTA, 150 mM NaCl, […], 2 mM sodium orthovanadate, 10 mg/mL leupeptin, 10 mg/mL apoprotin). The lysate was clarified by centrifugation at 13,000 rpm for 15 min. Lysate protein concentrations were normalized and equal volumes of the lysate were resolved electrophoretically and analyzed for phosphotyrosine content as described above.

PKA = target: T4, PKA (Homo sapiens, UniProt P17612); assay: In Vitro Kinase Inhibition Assay; type: biochemical; conditions: at concentrations up to 300 mM
T4 construct: purchased Pierce
Description: PKA was purchased (Pierce) and used without further purification.

I338G v-Src = target: T5, I338G v-Src (Rous sarcoma virus subgroup A, UniProt P00524, DEL77-225/I338G); assay: biochemical; type: biochemical
T5 construct: screened against the catalytic domain of the target kinase, I338G v-Src; made in house; host or cells: E. coli DH5a, pGEX-KT

[11] = tested on: B cell receptor (BCR) mediated phosphorylation cascade in murine B cells; assay: Murine B Cell Assay (phosphotyrosine blot after anti-IgM stimulation); type: cell-based; set-up: dose or concentration left out as unconfirmed; conditions: 30 minutes, anti-IgM cross linked murine B cells
Description: Murine B Cell Assay: Splenic lymphocytes were isolated from 6-20 week old Balb/c or C57/B6 mice. The cells were washed out of the spleen into RPMI media containing 1 mg/mL DNase in and the red blood cells were lysed in 17 mM tris-ammonium chloride, pH 7.2, Approximately 4×10^6 cells were incubated at 37° C. for 30 minutes with […] of 3 g or 2 in 1.1% DMSO. B cell stimulation was initiated by the addition of 2 mg of goat anti-mouse IgM (Jackson Immuno Research, cat# 115-005-075) and subsequent incubation for 5 minutes at 37(C. The cells were isolated by centrifugation (13,000 rpm, 2 min) and lysed (lysis buffer: 1% Triton X-100, 50 mM tris pH 7.4, 2 mM EDTA, 150 mM NaCl, […] PMSF, 2 mM sodium orthovanadate, 10 mg/mL leupeptin, 10 mg/mL apoprotin). The cellular debris was then pelleted at 13,000 rpm for 15 min. Cellular proteins were separated by 10% polyacrylamide gel electrophoresis and transferred to a nitrocellulose membrane by Western blotting. Phosphotyrosine containing proteins were visualized by immunoblotting with anti-phosphotyrosine antibody (Upstate Biotechnology, Inc.).

PKCd = target: T6, PKCd (Homo sapiens, UniProt Q05655); assay: In Vitro Kinase Inhibition Assay; type: biochemical; conditions: at concentrations up to 300 mM
T6 construct: 6-His; made in house; host or cells: Bac-to-Bac baculovirus expression system (pFastBac B vector)
T6 sequence (Q05655 whole entry, species assumed): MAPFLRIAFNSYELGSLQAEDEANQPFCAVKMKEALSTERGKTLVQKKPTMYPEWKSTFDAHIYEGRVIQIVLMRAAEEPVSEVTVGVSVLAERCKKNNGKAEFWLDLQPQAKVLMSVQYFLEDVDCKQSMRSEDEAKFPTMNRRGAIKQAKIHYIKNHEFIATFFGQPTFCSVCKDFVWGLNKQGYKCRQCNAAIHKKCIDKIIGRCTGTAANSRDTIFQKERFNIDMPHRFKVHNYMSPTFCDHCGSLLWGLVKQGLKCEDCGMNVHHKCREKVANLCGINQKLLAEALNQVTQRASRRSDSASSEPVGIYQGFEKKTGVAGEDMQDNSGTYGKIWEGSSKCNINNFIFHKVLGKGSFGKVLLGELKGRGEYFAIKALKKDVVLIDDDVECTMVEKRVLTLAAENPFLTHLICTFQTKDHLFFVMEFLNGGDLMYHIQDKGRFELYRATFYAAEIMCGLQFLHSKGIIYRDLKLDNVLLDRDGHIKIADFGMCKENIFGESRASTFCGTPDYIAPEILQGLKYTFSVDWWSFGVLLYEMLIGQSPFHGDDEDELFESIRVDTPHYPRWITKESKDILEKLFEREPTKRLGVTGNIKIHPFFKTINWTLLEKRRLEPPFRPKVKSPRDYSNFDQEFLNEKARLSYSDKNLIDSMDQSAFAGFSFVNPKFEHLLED

[12] = GST-XD4, 1 mM RR-Src, 37° C., pH 8.0

O=P(O)(O)OP(=O)(O)OP(=O)(O)OC[C@H]1O[C@@H](n2cnc3c(NC4CCCC4)ncnc32)[C@H](O)[C@@H]1O [ATP analog 8, N^6(cyclopentyl)ATP]
use as phosphodonor for autophosphorylation (GST-XD4 [1]): apparent complete inability of GST-XD4 to use this analog as a phosphodonor for autophosphorylation | inhibition of GST-XD4(V323A, I338A) catalyzed RR-Src phosphorylation (GST-XD4(V323A, I338A) [2]): almost as well as the wild-type kinase, GST-XD4, is inhibited by its natural substrate ATP | ability to serve as cellular protein tyrosine kinase substrate (level of protein tyrosine phosphorylation) [3]: slightly lower level of phosphorylation with wild-type kinase | phosphorylation of RR-Src peptide with the nucleotide as phosphate donor (GST-XD4(V323A, I338A) [4]): displayed Michaelis-Menten kinetics | radiolabeled phosphoproteins in cell lysate [5]: no radiolabeled phosphoproteins in the cell lysate | use as phosphodonor for autophosphorylation (GST-XD4(V323A, I338A) [6]): efficiently autophosphorylated | Ki (GST-XD4 [7]): 2000 µM | phosphorylation of RR-Src peptide with the nucleotide as phosphate donor (GST-XD4 [7]; wild-type GST-XD4): did not substantially phosphorylate the RR-Src peptiide

Nc1ncnc2c1ncn2[C@@H]1O[C@H](COP(=O)(O)OP(=O)(O)OP(=O)(O)O)[C@@H](O)[C@H]1O [ATP, adenosine triphosphate]
Km (GST-XD4 [8]): 2600 ± 900 µM | reduction in binding affinity for ATP relative to wild-type Cdc28 (Cdc28-as1 · MBP-Clb2): 10 fold | reduction in maximum ATP turnover rate relative to wild-type Cdc28 (Cdc28-as1 · MBP-Clb2): 6 fold | Km (GST-XD4 [7]; [12]): 12 ± 3 µM | kcat (GST-XD4 [7]; [12]): 0.033 ± 0.0083 s⁻¹

CC(C)(C)n1nc(-c2ccccc2)c2c(NC(=O)c3ccccc3)ncnc21 [Compound 3e, 4-benzamido-1-tert-butyl-3-phenylpyrazolo[3,4-d]pyrimidine]
IC50 (wild-type Fyn): > 400 µM

CC(C)(C)c1ccc(C(=O)Nc2ncnc3c2c(-c2ccccc2)nn3C(C)(C)C)cc1 [Compound 3g, 4-(p-tert-butyl)benzamido-1-tert-butyl-3-phenylpyrazolo[3,4-d]pyrimidine]
cell morphology and polymerized actin [9]: appeared flat and did not exhibit growth characteristics of transformed cells; also recorded: have defined polymerized actin strings | tyrosine phosphorylation [10]: but not WT v-Src transformed NIH3T3 fibroblasts; also recorded: causes no loss of tyrosine phosphorylation | inhibition of PKA (PKA): not detectably inhibited | mode of inhibition of I338G v-Src (I338G v-Src; Lineweaver-Burk analysis): competitively with respect to ATP | Ki (I338G v-Src; Lineweaver-Burk analysis at various ATP concentrations, read-out: inhibitory constant (Ki), I338G v-Src): ~0.4 µM | phosphotyrosine pattern of B cell stimulation [11]: no effect on the phosphotyrosine pattern of B cell stimulation | inhibition of PKCd (PKCd): not detectably inhibited

Source: US20030073218A1, “High affinity inhibitors for target validation and uses thereof” (Princeton University, priority 1999, published 2003)
